Values after ≈ are worked out from the molar mass of the structure shown. Values joined by “and” are separate entries in the source; they are usually repeats but may differ in a detail not shown here. Equal entries are not always repeated. Values belong to the molecule of their own block, whether it stands above or below them.
Assays:
Assay type in all cases: functional
Candida albicans = assay: Antifungal activity against Candida albicans assessed as inhibition of fungal growth incubated measured per 100 uL incubated for 24 hrs by agar well diffusion method
Pseudomonas aeruginosa [1] = assay: Antibacterial activity against Pseudomonas aeruginosa assessed as inhibition of bacterial growth measured per 100 uL incubated for 24 hrs by agar well diffusion method
Escherichia coli [2] = assay: Antibacterial activity against Escherichia coli assessed as inhibition of bacterial growth measured per 100 uL incubated for 24 hrs by agar well diffusion method
Saccharomyces cerevisiae = assay: Antifungal activity against Saccharomyces cerevisiae assessed as inhibition of fungal growth incubated measured per 100 uL incubated for 24 hrs by agar well diffusion method
Staphylococcus aureus [3] = assay: Antibacterial activity against Staphylococcus aureus assessed as inhibition of bacterial growth measured per 100 uL incubated for 24 hrs by agar well diffusion method
Bacillus subtilis [4] = assay: Antibacterial activity against Bacillus subtilis assessed as inhibition of bacterial growth measured per 100 uL incubated for 24 hrs by agar well diffusion method
Staphylococcus aureus [5] = assay: Antibacterial activity against Staphylococcus aureus ATCC 25923 assessed as inhibition of bacterial growth incubated for 18 to 24 hrs by CLSI protocol based Tryptic soy broth method; conditions: time 18-24 hrs
Enterococcus faecalis [6] = assay: Antibacterial activity against Enterococcus faecalis ATCC 29212 assessed as inhibition of bacterial growth incubated for 18 to 24 hrs by CLSI protocol based Tryptic soy broth method; conditions: time 18-24 hrs
[7] = system: Staphylococcus epidermidis; assay: Antibacterial activity against Staphylococcus epidermidis ATCC 12228 assessed as inhibition of bacterial growth incubated for 18 to 24 hrs by CLSI protocol based Tryptic soy broth method; conditions: time 18-24 hrs
Staphylococcus aureus [8] = assay: Antibacterial activity against methicillin-resistant Staphylococcus aureus assessed as inhibition of bacterial growth incubated for 18 to 24 hrs by CLSI protocol based Tryptic soy broth method; conditions: time 18-24 hrs
Staphylococcus aureus [9] = assay: Antibacterial activity against methicillin-resistant Staphylococcus aureus assessed as inhibition of bacterial growth by CLSI protocol based method
Staphylococcus aureus [10] = assay: Antibacterial activity against Staphylococcus aureus ATCC 29213 assessed as inhibition of bacterial growth by CLSI protocol based method
Enterococcus = assay: Antibacterial activity against vancomycin-resistant Enterococcus assessed as inhibition of bacterial growth by CLSI protocol based method
Enterococcus faecalis [11] = assay: Antibacterial activity against Streptococcus faecalis NCIM 2080 assessed as inhibition of bacterial growth incubated for 24 hrs by serial dilution method
Staphylococcus aureus [12] = assay: Antibacterial activity against Staphylococcus aureus NCIM 5257 assessed as inhibition of bacterial growth incubated for 24 hrs by serial broth dilution method
Bacillus subtilis [13] = assay: Antibacterial activity against Bacillus subtilis NCIM 2097 assessed as inhibition of bacterial growth incubated for 24 hrs by serial broth dilution method
Klebsiella pneumoniae = assay: Antibacterial activity against Klebsiella pneumoniae NCIM 5289 assessed as inhibition of bacterial growth incubated for 24 hrs by serial dilution method
Escherichia coli [14] = assay: Antibacterial activity against Escherichia coli NCIM 2065 assessed as inhibition of bacterial growth incubated for 24 hrs by serial dilution method
Pseudomonas aeruginosa [15] = assay: Antibacterial activity against Pseudomonas aeruginosa NCIM 5210 assessed as inhibition of bacterial growth incubated for 24 hrs by serial dilution method

MIC (Candida albicans): 12.5 µg | MIC (Pseudomonas aeruginosa [1]): 12.5 µg | MIC (Escherichia coli [2]): 12.5 µg | MIC (Saccharomyces cerevisiae): 12.5 µg | MIC (Staphylococcus aureus [3]): 12.5 µg | MIC (Bacillus subtilis [4]): 12.5 µg
Structure (SMILES): O=C1NC(Cc2ccc(Nc3nc(-c4cccc(Cl)c4)cs3)cc2)CO1 (stereo unspecified)

Structure (SMILES): CC(=O)NC[C@H]1CN(c2ccc(OCc3nc(C)c(C)nc3C)cc2)C(=O)O1
MIC (Staphylococcus aureus [5]): 16 µg/mL (≈ 41.6 µM) | MIC (Enterococcus faecalis [6]): 32 µg/mL (≈ 83.2 µM) | MIC [7]: 16 µg/mL (≈ 41.6 µM) | MIC (Staphylococcus aureus [8]): 8 µg/mL (≈ 20.8 µM)

Structure (SMILES): Cc1nc(C)c(COc2ccc(N3C[C@H](CNC(=O)C(Cl)Cl)OC3=O)cc2)nc1C
MIC (Staphylococcus aureus [5]): 8 µg/mL (≈ 17.6 µM) | MIC (Enterococcus faecalis [6]): 16 µg/mL (≈ 35.3 µM) | MIC [7]: 8 µg/mL (≈ 17.6 µM) | MIC (Staphylococcus aureus [8]): 4 µg/mL (≈ 8.82 µM)

Structure (SMILES): CC(=O)NC[C@H]1CN(c2ccc(N3CCN(/N=C/c4ncc(N)n4C)CC3)c(F)c2)C(=O)O1
MIC (Staphylococcus aureus [9]): > 8 µg/mL | MIC (Staphylococcus aureus [10]): > 8 µg/mL | MIC (Enterococcus): > 8 µg/mL

Structure (SMILES): CC(=O)NC[C@H]1CN(c2ccc(N3CCN(/N=C/c4ccc([N+](=O)[O-])o4)CC3)c(F)c2)C(=O)O1
MIC (Staphylococcus aureus [9]): 1 µg/mL (≈ 2.11 µM) | MIC (Staphylococcus aureus [10]): 0.25 µg/mL (≈ 0.527 µM) | MIC (Enterococcus): 1 µg/mL (≈ 2.11 µM)

Structure (SMILES): CC(=O)NC[C@H]1CN(c2ccc(N3CCN(/N=C/c4ccc([N+](=O)[O-])cc4)CC3)c(F)c2)C(=O)O1
MIC (Staphylococcus aureus [9]): 4 µg/mL (≈ 8.26 µM) | MIC (Staphylococcus aureus [10]): 4 µg/mL (≈ 8.26 µM) | MIC (Enterococcus): 4 µg/mL (≈ 8.26 µM)

Structure (SMILES): CC(=O)NC[C@H]1CN(c2ccc(N3CCN(/N=C/c4c(Cl)cccc4[N+](=O)[O-])CC3)c(F)c2)C(=O)O1
MIC (Staphylococcus aureus [9]): 8 µg/mL (≈ 15.4 µM) | MIC (Staphylococcus aureus [10]): 8 µg/mL (≈ 15.4 µM) | MIC (Enterococcus): 8 µg/mL (≈ 15.4 µM)

Structure (SMILES): CC(=O)NC[C@H]1CN(c2ccc(N3CCN(/N=C/c4cccc([N+](=O)[O-])c4)CC3)c(F)c2)C(=O)O1
MIC (Staphylococcus aureus [9]): 1 µg/mL (≈ 2.06 µM) | MIC (Staphylococcus aureus [10]): 2 µg/mL (≈ 4.13 µM) | MIC (Enterococcus): 2 µg/mL (≈ 4.13 µM)

Structure (SMILES): Cc1nc(C)c(COc2ccc(N3C[C@H](CNC(=O)CCl)OC3=O)cc2)nc1C
MIC (Staphylococcus aureus [5]): 8 µg/mL (≈ 19.1 µM) | MIC (Enterococcus faecalis [6]): 16 µg/mL (≈ 38.2 µM) | MIC [7]: 8 µg/mL (≈ 19.1 µM) | MIC (Staphylococcus aureus [8]): 8 µg/mL (≈ 19.1 µM)

MIC (Candida albicans): 12.5 µg | MIC (Pseudomonas aeruginosa [1]): 12.5 µg | MIC (Escherichia coli [2]): 12.5 µg | MIC (Saccharomyces cerevisiae): 12.5 µg | MIC (Staphylococcus aureus [3]): 6.25 µg | MIC (Bacillus subtilis [4]): 25 µg
Structure (SMILES): O=C1NC(Cc2ccc(Nc3nc(-c4ccc5ccccc5c4)cs3)cc2)CO1 (stereo unspecified)

Structure (SMILES): CC(=O)NC[C@H]1CN(c2ccc(N3CCN(/N=C(\C)Cn4c([N+](=O)[O-])cnc4C)CC3)c(F)c2)C(=O)O1
MIC (Staphylococcus aureus [9]): 1 µg/mL (≈ 1.94 µM) | MIC (Staphylococcus aureus [10]): 1 µg/mL (≈ 1.94 µM) | MIC (Enterococcus): 4 µg/mL (≈ 7.74 µM)

MIC (Candida albicans): 12.5 µg | MIC (Pseudomonas aeruginosa [1]): 12.5 µg | MIC (Escherichia coli [2]): 12.5 µg | MIC (Saccharomyces cerevisiae): 12.5 µg | MIC (Staphylococcus aureus [3]): 6.25 µg | MIC (Bacillus subtilis [4]): 6.25 µg
Structure (SMILES): O=C1NC(Cc2ccc(Nc3nc(-c4ccc(Cl)cc4)cs3)cc2)CO1 (stereo unspecified)

MIC (Enterococcus faecalis [11]): 3.12 µg/mL (≈ 7.52 µM) | MIC (Staphylococcus aureus [12]): 3.12 µg/mL (≈ 7.52 µM) | MIC (Bacillus subtilis [13]): 3.12 µg/mL (≈ 7.52 µM) | MIC (Klebsiella pneumoniae): 3.12 µg/mL (≈ 7.52 µM) | MIC (Escherichia coli [14]): 3.12 µg/mL (≈ 7.52 µM) | MIC (Pseudomonas aeruginosa [15]): 3.12 µg/mL (≈ 7.52 µM)
Structure (SMILES): O=C(/C=C/c1ccc(O)cc1)c1ccc(-c2ccc(N3C[C@H](CO)OC3=O)cc2)cc1

Structure (SMILES): Cc1nc(C)c(COc2ccc(N3C[C@H](CNC(=O)C(Cl)Cl)OC3=O)cc2F)nc1C
MIC (Staphylococcus aureus [5]): 4 µg/mL (≈ 8.49 µM) | MIC (Enterococcus faecalis [6]): 8 µg/mL (≈ 17 µM) | MIC [7]: 4 µg/mL (≈ 8.49 µM) | MIC (Staphylococcus aureus [8]): 2 µg/mL (≈ 4.24 µM)

Structure (SMILES): Cc1nc(C)c(COc2ccc(N3C[C@H](CNC(=O)c4ccco4)OC3=O)cc2F)nc1C
MIC (Staphylococcus aureus [5]): 32 µg/mL (≈ 70.4 µM) | MIC (Enterococcus faecalis [6]): 128 µg/mL (≈ 282 µM) | MIC [7]: 16 µg/mL (≈ 35.2 µM) | MIC (Staphylococcus aureus [8]): 32 µg/mL (≈ 70.4 µM)

Structure (SMILES): CC(=O)NC[C@H]1CN(c2ccc(N3CCN(/N=C/c4ccccc4[N+](=O)[O-])CC3)c(F)c2)C(=O)O1
MIC (Staphylococcus aureus [9]): 1 µg/mL (≈ 2.06 µM) | MIC (Staphylococcus aureus [10]): 2 µg/mL (≈ 4.13 µM) | MIC (Enterococcus): 2 µg/mL (≈ 4.13 µM)

MIC (Candida albicans): 12.5 µg | MIC (Pseudomonas aeruginosa [1]): 12.5 µg | MIC (Escherichia coli [2]): 12.5 µg | MIC (Saccharomyces cerevisiae): 12.5 µg | MIC (Staphylococcus aureus [3]): 6.25 µg | MIC (Bacillus subtilis [4]): 6.25 µg
Structure (SMILES): O=C1NC(Cc2ccc(Nc3nc(-c4ccc([N+](=O)[O-])cc4)cs3)cc2)CO1 (stereo unspecified)

Structure (SMILES): CC(=O)NC[C@H]1CN(c2ccc(N3CCN(/N=C/Cn4c([N+](=O)[O-])cnc4C)CC3)c(F)c2)C(=O)O1
MIC (Staphylococcus aureus [9]): 1 µg/mL (≈ 1.99 µM) | MIC (Staphylococcus aureus [10]): 1 µg/mL (≈ 1.99 µM) | MIC (Enterococcus): 4 µg/mL (≈ 7.96 µM)

MIC (Enterococcus faecalis [11]): 3.12 µg/mL (≈ 7.28 µM) | MIC (Staphylococcus aureus [12]): 3.12 µg/mL (≈ 7.28 µM) | MIC (Bacillus subtilis [13]): 3.12 µg/mL (≈ 7.28 µM) | MIC (Klebsiella pneumoniae): 3.12 µg/mL (≈ 7.28 µM) | MIC (Escherichia coli [14]): 3.12 µg/mL (≈ 7.28 µM) | MIC (Pseudomonas aeruginosa [15]): 3.12 µg/mL (≈ 7.28 µM)
Structure (SMILES): COc1ccc(/C=C/C(=O)c2ccc(-c3ccc(N4C[C@H](CO)OC4=O)cc3)cc2)cc1

MIC (Candida albicans): 12.5 µg | MIC (Pseudomonas aeruginosa [1]): 6.25 µg | MIC (Escherichia coli [2]): 12.5 µg | MIC (Saccharomyces cerevisiae; 24 h): 12.5 µg and 6.25 µg | MIC (Staphylococcus aureus [3]): 6.25 µg | MIC (Bacillus subtilis [4]): 25 µg
Structure (SMILES): O=C1NC(Cc2ccc(Nc3nc(-c4c(O)oc(O)cc4=O)cs3)cc2)CO1 (stereo unspecified)
